According to PubChem BioAssay AID504740 (National Center for Advancing Translational Sciences (NCATS), 2011):

Tested on: mouse plasma stability, LC-MS/MS, 48 h
Assay: Inhibitors of Bloom's syndrome helicase: Mouse Plasma Stability Profiling
Settings: at 2 µM; hits give high values
Description: Survival of cells and the faithful propagation of the genome depend on elaborate mechanisms of detecting and repairing DNA damage. Treatment of advanced cancer relies on radiation therapy or chemotherapy, which kill cancer cells by causing extensive DNA damage. It is often found, that cancer cells develop resistance to therapy through enhanced activity of DNA repair functions; this has led to an increased interest in developing drugs that interfere with DNA repair, which could sensitize cancer cells to conventional therapy. Bloom syndrome helicase (BLM), is important in resolving abnormal DNA structures formed during replication or homologous recombination. Shutting down the expression of BLM leads to chromosomal instability and higher radiation sensitivity in cultured cells. After the completion of a qHTS campaign, secondary assays, and rounds of medicinal chemistry, a compound was identified to be further characterized through in vitro ADME assays. The stability of the lead compound in mouse plasma is tested because this parameter has a significant impact on many ADME-concerned properties of drugs, such as uptake, distribution, transport, and bioavailability. […]
2uM of compound is incubated in mouse plasma; the reference compound is procaine. Compounds are incubated at 37 deg C for the pre-determined time periods and the when aliquots are removed. Samples are analyzed with LC-MS/MS.

- percent remaining: 100%
SMILES: O=C(Nc1ccc(F)c(C(F)(F)F)c1)Nc1nnc(-c2ccncc2)s1
